According to ChEMBL document CHEMBL5728026, “Indole derivative used as CRTH2 inhibitor” (2020):
pIC50: −log10 of the molar value.

Target: T1, Prostaglandin D2 receptor 2 (Homo sapiens, UniProt Q9Y5Y4)
T1 sequence (Q9Y5Y4 whole entry): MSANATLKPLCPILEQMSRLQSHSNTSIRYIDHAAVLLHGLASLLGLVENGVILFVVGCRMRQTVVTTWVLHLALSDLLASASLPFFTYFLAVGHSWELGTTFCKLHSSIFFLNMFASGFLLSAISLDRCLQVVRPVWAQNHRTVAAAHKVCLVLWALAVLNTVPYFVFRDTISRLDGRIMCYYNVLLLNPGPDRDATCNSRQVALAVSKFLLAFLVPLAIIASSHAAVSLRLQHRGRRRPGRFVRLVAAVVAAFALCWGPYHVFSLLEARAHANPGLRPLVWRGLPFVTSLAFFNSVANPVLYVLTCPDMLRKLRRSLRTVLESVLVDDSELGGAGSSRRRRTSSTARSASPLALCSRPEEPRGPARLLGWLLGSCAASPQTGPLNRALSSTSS
Test: Biological Activity Assay: Experimental Method:PathHunter CHO-K1 CRTH2 β-arrestin cells (DiscoverX, catalogue number 93-0291C2) grew under standard conditions, and were inoculated into a white-wall 384-well microplate at a density of 5,000 cells/well. 20 μL of Cell Plating Reagent 1 was used in each well. Before the test, the cells were incubated overnight at 37° C./5% CO2. A test compound was serially diluted in DMSO with a dilution factor of 3-fold to give 8 concentrations of the test compound. Shortly before the test, the serially diluted test compound was further diluted with the test buffer to 5 times of the test concentration. 5 μL of the further diluted test compound was added to the cells, and the cells were incubated for 30 min at 37° C. The concentration of the solvent was 1%. 5 μL of 6×EC80 agonist (PGD2) buffer was added to the cells, and the cells were incubated for 90 min at 37° C. Measured signals were generated by one-time addition of 15 μL (50% v/v) of PathHunter detection mixture reagent and subsequent one-hour incubation. The microplate was read through the chemiluminescent signals of PerkinElmer Envision™ reader. Biological activity of the test compound was analyzed by CBIS data analysis suite (ChemInnovation, CA), and was denoted as IC50 value.

pIC50 | Structure (SMILES)
> 7.00 | Cc1c(Cc2ccc3c(c2)C(F)(F)CN(C)S3(=O)=O)c2cc(F)ccc2n1CC(=O)O
< 6.00 | Cc1c(Cc2ccc3c(c2)CCS3(=O)=O)c2cc(NC(=O)C3CC3)ccc2n1CC(=O)O
> 7.00 | Cc1c(C2=CS(=O)(=O)c3cc(Cl)ccc32)c2cc(F)ccc2n1CC(=O)O
> 7.00 | CC1=Nc2cc(Cc3c(C)n(CC(=O)O)c4ccc(F)cc34)ccc2S(=O)(=O)N1
> 7.00 | Cc1c(Cc2ccc3c(c2)C(C)(C)CS3(=O)=O)c2cc(F)ccc2n1CC(=O)O
> 7.00 | Cc1c(C2=CS(=O)(=O)c3ccccc32)c2cc(F)ccc2n1CC(=O)O
< 6.00 | O=C(O)Cn1c(-c2ccccc2)c(Cc2ccc3c(c2)CCS3(=O)=O)c2ccccc21
> 7.00 | Cc1c(C2=CS(=O)(=O)c3cc(-c4cc(F)cc(Cl)c4)ccc32)c2cc(F)ccc2n1CC(=O)O
> 7.00 | Cc1c(Cc2ccc3c(c2)N(C)CN(C)S3(=O)=O)c2cc(F)ccc2n1CC(=O)O
> 7.00 | Cc1c(Cc2ccc3c(c2)N=CN(C)S3(=O)=O)c2cc(F)ccc2n1CC(=O)O
< 6.00 | Cc1c(Cc2ccc3c(c2)C(F)(F)CCS3(=O)=O)c2cnccc2n1CC(=O)O
< 6.00 | Cc1c(Cc2ccc3c(c2)CCS3(=O)=O)c2ccc(C(F)(F)F)cc2n1CC(=O)O
< 6.00 | Cc1c(Cc2ccc3c(c2)C(F)(F)CCS3(=O)=O)c2cccnc2n1CC(=O)O
> 7.00 | Cc1c(Cc2cc3c(cc2C(F)(F)F)S(=O)(=O)N(C)CN3C)c2cc(F)ccc2n1CC(=O)O
> 7.00 | Cc1c(C2=CCS(=O)(=O)c3ccccc32)c2cc(F)ccc2n1CC(=O)O
< 6.00 | Cc1c(C2=CS(=O)(=O)c3ccc(F)cc32)c2cc(F)ccc2n1CC(=O)O
> 7.00 | Cc1c(Cc2ccc3c(c2)C(F)(F)CCS3(=O)=O)c2cc(F)ccc2n1CC(=O)O
> 7.00 | Cc1c(C2=CS(=O)(=O)c3cc(C(F)(F)F)ccc32)c2cc(F)ccc2n1CC(=O)O
> 7.00 | Cc1c(Cc2ccc3c(c2)CNS3(=O)=O)c2cc(F)ccc2n1CC(=O)O
> 7.00 | Cc1c(C2=CS(=O)(=O)c3ccccc32)c2ccc(Cl)cc2n1CC(=O)O

Structure (SMILES) | pIC50
Cc1c(Cc2ccc3c(c2)C(F)(F)CCS3(=O)=O)c2cc(F)ccc2n1Cc1nn[nH]n1 | < 6.00
